Columns and labels:
[1] = type: physicochemical
Experimental: Aqueous Solubility Determination: Approximately 0.5 mL of doubly distilled water is added to 16 to 39 mg of the substance to be measured. The resulting suspension is equilibrated in a temperature-controlled Eppendorf Thermomixer Comfort shaker for 2 h and 24 h at 25° C. at a shaking rate of 600 rpm. After 24 h the solid phase is recovered by filter centrifugation (0.10-μm PVDF membrane) and examined by XRPD. Concentrations in the filtrate after 2 h and 24 h (i.e., saturated solutions) are determined using HPLC. The pH of the saturated solution is determined with a Metrohm 713 pH meter.

[2] = Water uptake under humidity; type: physicochemical

For “Rosuvastatin hemicalcium salt/crystal form D (1:1 co-crystal with D-sorbitol)”, the solubility [1] was “as good as solid forms of Rosuvastatin calcium previously known” and the “water uptake under humidity” value [2] was “less prone to water uptake under humidity”.

Source: US9249108B2, “Multicomponent system of rosuvastatin calcium salt and sorbitol” (BASF SE, priority 2010, dated 2016)
